Measurements taken from article PMC9855884, “Glycosylated Lipopeptides—Synthesis and Evaluation of Antimicrobial Activity and Cytotoxicity” (Biomolecules, 2023).
Values after ≈ are worked out from the molar mass of the structure shown. Where a SMILES comes first, the peptide text is derived from it. The star is where a group is joined. βGlcNAc = CC(=O)N[C@@H]1[C@@H](O)[C@H](O)[C@@H](CO)O[C@H]1*; Stearoyl = CCCCCCCCCCCCCCCCCC(=O)*; Palmitoyl = CCCCCCCCCCCCCCCC(=O)*; Myristoyl = CCCCCCCCCCCCCC(=O)*

Assays:
C. glabrata ATCC 15126 = assay type: cell-based, Candida glabrata; conditions: ATCC 15126, 24 h
Protocol: The Acinetobacter baumannii ATCC BAA-1605, Enterococcus faecium ATCC 700221, Klebsiella aerogenes ATCC 13048, Klebsiella pneumoniae ATCC 700603, Pseudomonas aeruginosa ATCC 9027, Staphylococcus aureus ATCC 33591, Candida glabrata ATCC 15126, strains were acquired from the American Type Culture Collection (ATCC). All the strains were stored at −80 °C in Roti-Store cryo vials and were transferred into fresh Mueller–Hinton broth (MHB, Becton Dickinson, Warsaw, Poland) for bacteria or RPMI-1640 (Sigma-Aldrich, Steinheim, Germany) for fungi before the tests and incubated for 24 h at 37 °C. Then, the cultures were seeded on the Mueller–Hinton agar (BioMaxima, Lublin, Poland) or Sabouraud dextrose agar (SDA, BioMaxima, Lublin, Poland) plates, respectively, and incubated as just mentioned. These agar cultures were used for further microbiological assays. Cell densities for all assays were adjusted spectrophotometrically (Multiskan GO Microplate Spectrophotometer, Thermo Fisher Scientific, Vantaa, Finland) at 600 and 530 nm for bacteria and fungi, respectively.
The MICs were determined using a broth microdilution method according to the Clinical and Laboratory Standard Institute guidelines. For this purpose, initial inoculums of bacteria (5 × 10^5 CFU/mL) in MHB and yeasts (2 × 10^3 CFU/mL) in RPMI-1640 with 2% D-glucose were exposed to the ranging concentration of lipopeptides (1–512 μg/mL) and incubated at 37 °C for 18 h and 24 h, respectively. The experiments were conducted on 96-well microtiter polystyrene plates (Kartell, Italy). The growth was assessed visually after incubation and the MIC was assumed as the lowest peptide concentration at which a noticeable growth of microorganisms was inhibited. All experiments were conducted in triplicate.

[1] = Determination of peptide hydrophobicity with RP-HPLC (adjusted retention time); assay type: physicochemical; conditions: RP-HPLC as measure of hydrophobicity; Waters X-Bridge Shield RP-18 3.0 × 100 mm, 3.5 μm; linear 20–80% acetonitrile in water over 30 min, 0.1% TFA; 0.5 mL/min; 25.0 °C; peptide 1 g/L in water (0.1% TFA); UV 214 nm; triplicate
Protocol: To determine peptide hydrophobicity, a Waters Alliance e2695 system with a Waters 2998 PDA Detector was used. All analyses were carried out on a Waters X-Bridge Shield RP-18 column (3.0 × 100 mm, 3.5 μm particle size, 130 Å pore size). The peptides were dissolved in water (0.1% TFA, v/v) up to a concentration of 1 g/L. UV detection at 214 nm was used, and samples (10 μL) were eluted with a linear 20–80% acetonitrile gradient in deionized water over 30 min at 25.0 ± 0.1 °C. The mobile phase flow rate was 0.5 mL/min. Both eluents contained 0.1% (v/v) of TFA. Each peptide sample was analyzed in triplicate. Maximum standard deviation and coefficient of variation were 0.046 and 0.23%, respectively.
After synthesis and purification, all the products were analyzed with MS and HPLC to confirm purity and identity of the compounds. […] The chromatographic analyses were performed with RP-HPLC; retention time refers to hydrophobicity of the lipopeptide.

[2] = test system: human red blood cells (RBCs); test: Hemolysis assay; assay type: cell-based; conditions: human RBCs 4% (v/v) in PBS, 60 min, 37 °C, absorbance 540 nm, 1–512 µg/mL; triplicate
Protocol: The hemolysis assay was conducted using a procedure described previously. For this purpose, fresh human red blood cells (RBCs) with EDTA anticoagulant were washed three times with phosphate-buffer saline (PBS) using centrifugation at 800× g for 10 min and resuspended in PBS. Then, the stock solution of RBCs was added to serial dilution of peptides on 96-well polystyrene plates to reach a final volume of 100 µL with 4% concentration of erythrocytes (v/v) over the concentration range of 1–512 µg/mL of the tested compounds. The control wells for the 0% and 100% hemolysis consisted of RBCs suspended in PBS and 1% of Triton X–100, respectively. Subsequently, the plates were incubated for 60 min at 37 °C and then centrifuged at 800× g for 10 min at 4 °C (Sorvall ST 16R Centrifuge, Thermo Scientific, Osterode am Harz, Germany). After centrifugation, the supernatant was carefully […] to new microtiter plates and the release of hemoglobin was monitored through absorbance measurements at 540 nm (Multiskan™ GO Microplate Spectrophotometer, Thermo Scientific). All experiments were conducted in triplicate.
The lipopeptides were tested against human erythrocytes in order to evaluate their hemolytic activity. Moreover, selectivity indexes (SI) were calculated by dividing the HC50 by MIC. […] In some cases, glycosylation led to suppressed toxicity, e.g., a comparison of C14 peptides analogs: 1–3 and 10–12. On the other hand, an increase in toxicity of C18 analogs (7–9 vs. 16–18) was found for glycosylated USCLs. For this reason, SI was calculated to provide a correlation between antimicrobial activity and toxicity. […] Among gUSCLs: 10 and 11 with C14 fatty acid and 16–18 should be highlighted owing to their high selectivity against E. fecium and C. glabrata.

Row | SMILES | MIC (C. glabrata ATCC 15126) [µg/mL] | Adjusted Retention Time [1] [min] | HC50 (hemolytic activity) [2] [µg/mL]
1 | CCCCCCCCCCCCCC(=O)N[C@@H](CCCNC(=N)N)C(=O)N[C@@H](CO[C@@H]1O[C@H](CO)[C@@H](O)[C@H](O)[C@H]1NC(C)=O)C(=O)N[C@@H](CCCNC(=N)N)C(N)=O [Peptide 11, C14-RS(GlcNAc)R-NH2] (Myristoyl-Arg-Ser(βGlcNAc)-Arg-NH2) | 128 (≈ 154 µM) | 14.82 | 364.17 ± 105.10
2 | CCCCCCCCCCCCCCCCCC(=O)N[C@@H](CO)C(=O)N[C@@H](CCCNC(=N)N)C(=O)N[C@@H](CCCNC(=N)N)C(N)=O [Peptide 7, C18-SRR-NH2] (Stearoyl-Ser-Arg-Arg-NH2) | 4 (≈ 5.86 µM) | 24.78 | 82.31 ± 1.36
3 | CCCCCCCCCCCCCC(=O)N[C@@H](CO[C@@H]1O[C@H](CO)[C@@H](O)[C@H](O)[C@H]1NC(C)=O)C(=O)N[C@@H](CCCNC(=N)N)C(=O)N[C@@H](CCCNC(=N)N)C(N)=O [Peptide 10, C14-S(GlcNAc)RR-NH2] (Myristoyl-Ser(βGlcNAc)-Arg-Arg-NH2) | 256 (≈ 308 µM) | 14.47 | >512
4 | CCCCCCCCCCCCCCCCCC(=O)N[C@@H](CCCNC(=N)N)C(=O)N[C@@H](CCCNC(=N)N)C(=O)N[C@@H](CO)C(N)=O [Peptide 9, C18-RRS-NH2] (Stearoyl-Arg-Arg-Ser-NH2) | 4 (≈ 5.86 µM) | 24.04 | 94.31 ± 2.64
5 | CCCCCCCCCCCCCC(=O)N[C@@H](CCCNC(=N)N)C(=O)N[C@@H](CO)C(=O)N[C@@H](CCCNC(=N)N)C(N)=O [Peptide 2, C14-RSR-NH2] (Myristoyl-Arg-Ser-Arg-NH2) | 32 (≈ 51 µM) | 15.96 | 186.64 ± 2.14
6 | CCCCCCCCCCCCCC(=O)N[C@@H](CCCNC(=N)N)C(=O)N[C@@H](CCCNC(=N)N)C(=O)N[C@@H](CO)C(N)=O [Peptide 3, C14-RRS-NH2] (Myristoyl-Arg-Arg-Ser-NH2) | 32 (≈ 51 µM) | 15.91 | 227.01 ± 5.69
7 | CCCCCCCCCCCCCCCC(=O)N[C@@H](CO)C(=O)N[C@@H](CCCNC(=N)N)C(=O)N[C@@H](CCCNC(=N)N)C(N)=O [Peptide 4, C16-SRR-NH2] (Palmitoyl-Ser-Arg-Arg-NH2) | 4 (≈ 6.11 µM) | 20.55 | 75.46 ± 0.73
8 | CCCCCCCCCCCCCCCC(=O)N[C@@H](CCCNC(=N)N)C(=O)N[C@@H](CO)C(=O)N[C@@H](CCCNC(=N)N)C(N)=O [Peptide 5, C16-RSR-NH2] (Palmitoyl-Arg-Ser-Arg-NH2) | 8 (≈ 12.2 µM) | 19.93 | 82.21 ± 2.07
9 | CCCCCCCCCCCCCCCC(=O)N[C@@H](CCCNC(=N)N)C(=O)N[C@@H](CCCNC(=N)N)C(=O)N[C@@H](CO)C(N)=O [Peptide 6, C16-RRS-NH2] (Palmitoyl-Arg-Arg-Ser-NH2) | 8 (≈ 12.2 µM) | 19.89 | 75.95 ± 1.57
10 | CCCCCCCCCCCCCC(=O)N[C@@H](CCCNC(=N)N)C(=O)N[C@@H](CCCNC(=N)N)C(=O)N[C@@H](CO[C@@H]1O[C@H](CO)[C@@H](O)[C@H](O)[C@H]1NC(C)=O)C(N)=O [Peptide 12, C14-RRS(GlcNAc)-NH2] (Myristoyl-Arg-Arg-Ser(βGlcNAc)-NH2) | 128 (≈ 154 µM) | 15.01 | 345.72 ± 51.94
11 | CCCCCCCCCCCCCCCCCC(=O)N[C@@H](CCCNC(=N)N)C(=O)N[C@@H](CO)C(=O)N[C@@H](CCCNC(=N)N)C(N)=O [Peptide 8, C18-RSR-NH2] (Stearoyl-Arg-Ser-Arg-NH2) | 4 (≈ 5.86 µM) | 24.13 | 335.12 ± 73.39

The next lines start with results.

Row | MIC (C. glabrata ATCC 15126) [µg/mL] | Adjusted Retention Time [1] [min] | SMILES | HC50 (hemolytic activity) [2] [µg/mL]
12 | 4 (≈ 4.51 µM) | 22.12 | CCCCCCCCCCCCCCCCCC(=O)N[C@@H](CO[C@@H]1O[C@H](CO)[C@@H](O)[C@H](O)[C@H]1NC(C)=O)C(=O)N[C@@H](CCCNC(=N)N)C(=O)N[C@@H](CCCNC(=N)N)C(N)=O [Peptide 16, C18-S(GlcNAc)RR-NH2] (Stearoyl-Ser(βGlcNAc)-Arg-Arg-NH2) | 77.45 ± 1.13
13 | 32 (≈ 37.3 µM) | 18.26 | CCCCCCCCCCCCCCCC(=O)N[C@@H](CO[C@@H]1O[C@H](CO)[C@@H](O)[C@H](O)[C@H]1NC(C)=O)C(=O)N[C@@H](CCCNC(=N)N)C(=O)N[C@@H](CCCNC(=N)N)C(N)=O [Peptide 13, C16-S(GlcNAc)RR-NH2] (Palmitoyl-Ser(βGlcNAc)-Arg-Arg-NH2) | 95.39 ± 2.40
14 | 16 (≈ 18.6 µM) | 18.80 | CCCCCCCCCCCCCCCC(=O)N[C@@H](CCCNC(=N)N)C(=O)N[C@@H](CCCNC(=N)N)C(=O)N[C@@H](CO[C@@H]1O[C@H](CO)[C@@H](O)[C@H](O)[C@H]1NC(C)=O)C(N)=O [Peptide 15, C16-RRS(GlcNAc)-NH2] (Palmitoyl-Arg-Arg-Ser(βGlcNAc)-NH2) | 111.45 ± 11.65
15 | 4 (≈ 4.51 µM) | 22.50 | CCCCCCCCCCCCCCCCCC(=O)N[C@@H](CCCNC(=N)N)C(=O)N[C@@H](CO[C@@H]1O[C@H](CO)[C@@H](O)[C@H](O)[C@H]1NC(C)=O)C(=O)N[C@@H](CCCNC(=N)N)C(N)=O [Peptide 17, C18-RS(GlcNAc)R-NH2] (Stearoyl-Arg-Ser(βGlcNAc)-Arg-NH2) | 45.25 ± 0.59
16 | 16 (≈ 18.6 µM) | 18.63 | CCCCCCCCCCCCCCCC(=O)N[C@@H](CCCNC(=N)N)C(=O)N[C@@H](CO[C@@H]1O[C@H](CO)[C@@H](O)[C@H](O)[C@H]1NC(C)=O)C(=O)N[C@@H](CCCNC(=N)N)C(N)=O [Peptide 14, C16-RS(GlcNAc)R-NH2] (Palmitoyl-Arg-Ser(βGlcNAc)-Arg-NH2) | 73.34 ± 1.63
17 | 4 (≈ 4.51 µM) | 22.67 | CCCCCCCCCCCCCCCCCC(=O)N[C@@H](CCCNC(=N)N)C(=O)N[C@@H](CCCNC(=N)N)C(=O)N[C@@H](CO[C@@H]1O[C@H](CO)[C@@H](O)[C@H](O)[C@H]1NC(C)=O)C(N)=O [Peptide 18, C18-RRS(GlcNAc)-NH2] (Stearoyl-Arg-Arg-Ser(βGlcNAc)-NH2) | 48.04 ± 2.45
